Measured values published in patent publication US4229435A, “Preparation of blood fraction” (priority 1978, dated 1980).

Assays:
Assay type in all cases: biochemical
Settings in all cases: no reducing agent
F II = molecular target: T1, F II (Homo sapiens, UniProt P00734); test: Coagulation factor II activity in plasma after reducing agent + iodoacetic acid
T1 construct: from tissue; host or cells: human citrated blood plasma
Description: (§1) Human blood with anti-coagulating agent (9 parts blood+1 part 3.8% trisodium citrate) is centrifuged and the following tests with plasma were carried out:
(§2) The plasma is divided into 8 ml portions, which are preheated at 37° C. for 5 min. DTT is added in different concentrations, see table 1 below, and is incubated for 5 min. at 37° C. Then iodoacetic acid, 3 mol per mol DTT, is added, and incubation takes place for 15 min. at 37° C. The plasma samples are distributed in portions of about 0.2 ml and are immediately frozen at -70° C. Testing of different coagulation factors is made in known manner.
(§3) The plasma is divided into 8 ml portions, which are preheated at 37° C. for 5 min. DTE is added in different concentrations (see table 2), and is incubated for 5 minutes at 37° C. Then, iodoacetic acid (3 mol per mol DTE) is added and incubation is carried out for 15 minutes at 37° C. The plasma samples are distributed in portions of about 0.2 ml and are immediately frozen at -70° C. Testing of different coagulation factors is made in a manner known per se.
as §3, with “minutes. Lipoic acid” for “min. DTE”, “3),” for “2),”, “lipoic acid)” for “DTE)”
as §3, with “minutes. Mercaptoethanol” for “min. DTE”, “4),” for “2),”, “mercaptoethanol)” for “DTE)”
as §3, with “minutes. Potassium borohydride” for “min. DTE”, “5,” for “2),”, “potassium borohydride)” for “DTE)”

F V = molecular target: T2, F V (Homo sapiens, UniProt P12259); test: Coagulation factor V activity in plasma after reducing agent + iodoacetic acid
T2 construct: from tissue; host or cells: human citrated blood plasma
T2 sequence (P12259 29-2224): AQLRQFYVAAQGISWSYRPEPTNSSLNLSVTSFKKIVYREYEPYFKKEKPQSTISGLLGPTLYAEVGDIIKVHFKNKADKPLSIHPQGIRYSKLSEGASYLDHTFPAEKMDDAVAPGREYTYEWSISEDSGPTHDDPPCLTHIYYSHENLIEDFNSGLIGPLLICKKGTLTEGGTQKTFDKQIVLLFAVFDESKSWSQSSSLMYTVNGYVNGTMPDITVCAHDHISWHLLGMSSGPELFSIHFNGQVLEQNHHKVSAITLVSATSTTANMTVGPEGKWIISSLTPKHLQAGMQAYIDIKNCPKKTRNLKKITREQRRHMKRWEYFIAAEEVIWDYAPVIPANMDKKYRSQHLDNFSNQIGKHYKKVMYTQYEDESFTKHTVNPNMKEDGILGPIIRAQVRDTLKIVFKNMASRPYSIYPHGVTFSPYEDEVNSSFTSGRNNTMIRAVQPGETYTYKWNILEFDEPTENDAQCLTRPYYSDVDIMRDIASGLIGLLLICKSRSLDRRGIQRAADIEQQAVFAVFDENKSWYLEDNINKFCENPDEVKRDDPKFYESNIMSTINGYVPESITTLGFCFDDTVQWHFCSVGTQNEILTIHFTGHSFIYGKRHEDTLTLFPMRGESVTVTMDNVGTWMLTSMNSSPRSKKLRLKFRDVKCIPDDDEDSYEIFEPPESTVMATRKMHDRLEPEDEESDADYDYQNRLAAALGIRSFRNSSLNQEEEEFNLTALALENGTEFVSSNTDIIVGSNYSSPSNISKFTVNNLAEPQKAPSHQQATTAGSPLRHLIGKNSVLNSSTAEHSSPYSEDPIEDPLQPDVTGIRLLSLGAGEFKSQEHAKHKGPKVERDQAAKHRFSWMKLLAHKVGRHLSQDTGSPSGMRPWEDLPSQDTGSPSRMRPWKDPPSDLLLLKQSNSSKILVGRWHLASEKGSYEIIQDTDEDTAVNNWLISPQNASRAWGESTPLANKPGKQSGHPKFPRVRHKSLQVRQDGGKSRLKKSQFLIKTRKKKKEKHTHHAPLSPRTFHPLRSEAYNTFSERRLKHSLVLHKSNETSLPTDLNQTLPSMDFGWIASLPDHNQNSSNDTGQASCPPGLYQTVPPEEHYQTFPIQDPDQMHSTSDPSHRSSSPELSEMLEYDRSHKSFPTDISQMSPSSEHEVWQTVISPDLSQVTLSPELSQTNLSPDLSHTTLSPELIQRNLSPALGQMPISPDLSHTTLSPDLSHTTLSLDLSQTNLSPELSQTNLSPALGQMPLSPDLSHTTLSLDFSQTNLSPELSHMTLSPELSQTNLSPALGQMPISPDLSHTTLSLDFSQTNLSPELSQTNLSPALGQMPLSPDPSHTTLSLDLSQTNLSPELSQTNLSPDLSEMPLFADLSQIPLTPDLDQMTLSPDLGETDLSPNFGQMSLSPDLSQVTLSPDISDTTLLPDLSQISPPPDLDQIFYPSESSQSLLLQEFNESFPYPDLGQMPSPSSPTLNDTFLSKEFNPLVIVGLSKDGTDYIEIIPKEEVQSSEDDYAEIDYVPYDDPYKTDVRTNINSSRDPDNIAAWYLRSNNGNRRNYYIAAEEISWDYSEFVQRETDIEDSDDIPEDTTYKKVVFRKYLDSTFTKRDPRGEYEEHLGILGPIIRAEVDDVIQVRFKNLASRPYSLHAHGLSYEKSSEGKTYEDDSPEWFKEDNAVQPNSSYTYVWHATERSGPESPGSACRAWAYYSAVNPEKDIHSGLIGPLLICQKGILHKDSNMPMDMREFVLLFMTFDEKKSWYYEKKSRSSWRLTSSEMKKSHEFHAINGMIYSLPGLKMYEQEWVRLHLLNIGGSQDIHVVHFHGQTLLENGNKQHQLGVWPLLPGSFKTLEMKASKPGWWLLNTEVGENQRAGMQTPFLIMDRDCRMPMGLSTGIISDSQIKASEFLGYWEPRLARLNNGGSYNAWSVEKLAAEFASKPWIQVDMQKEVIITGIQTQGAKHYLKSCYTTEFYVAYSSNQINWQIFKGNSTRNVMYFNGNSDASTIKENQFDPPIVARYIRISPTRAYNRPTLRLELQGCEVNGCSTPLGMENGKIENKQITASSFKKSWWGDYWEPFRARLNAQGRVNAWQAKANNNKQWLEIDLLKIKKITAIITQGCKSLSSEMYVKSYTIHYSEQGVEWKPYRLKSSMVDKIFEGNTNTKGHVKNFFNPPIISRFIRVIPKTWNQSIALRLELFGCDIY
Description: as §1, §2, §3
as §3, with “minutes. Lipoic acid” for “min. DTE”, “3),” for “2),”, “lipoic acid)” for “DTE)”
as §3, with “minutes. Mercaptoethanol” for “min. DTE”, “4),” for “2),”, “mercaptoethanol)” for “DTE)”
as §3, with “minutes. Potassium borohydride” for “min. DTE”, “5,” for “2),”, “potassium borohydride)” for “DTE)”

F X = molecular target: T3, F X (Homo sapiens, UniProt P00742); test: Coagulation factor X activity in plasma after reducing agent + iodoacetic acid
T3 construct: from tissue; host or cells: human citrated blood plasma
T3 sequence (P00742 235-488 limits assumed): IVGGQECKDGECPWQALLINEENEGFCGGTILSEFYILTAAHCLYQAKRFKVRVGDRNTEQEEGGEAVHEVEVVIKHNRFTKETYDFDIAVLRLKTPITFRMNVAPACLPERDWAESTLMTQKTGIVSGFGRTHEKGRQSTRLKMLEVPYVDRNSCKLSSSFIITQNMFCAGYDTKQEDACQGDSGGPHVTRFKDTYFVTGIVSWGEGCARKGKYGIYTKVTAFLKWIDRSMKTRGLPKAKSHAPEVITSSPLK
T3 sequence (P00742 41-179 limits assumed): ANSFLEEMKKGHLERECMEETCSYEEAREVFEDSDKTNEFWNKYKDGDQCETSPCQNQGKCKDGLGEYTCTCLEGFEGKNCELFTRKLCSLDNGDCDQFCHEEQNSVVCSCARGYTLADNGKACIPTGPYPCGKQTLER
Description: as §1, §2, §3
as §3, with “minutes. Lipoic acid” for “min. DTE”, “3),” for “2),”, “lipoic acid)” for “DTE)”
as §3, with “minutes. Mercaptoethanol” for “min. DTE”, “4),” for “2),”, “mercaptoethanol)” for “DTE)”
as §3, with “minutes. Potassium borohydride” for “min. DTE”, “5,” for “2),”, “potassium borohydride)” for “DTE)”

[1] = Table 1 B: control plasma + iodoacetic acid, same amount as in F
[2] = Table 2 B: control plasma + iodoacetic acid, same amount as in E
[3] = Table 3 B: control plasma + iodoacetic acid, same amount as in E
[4] = Table 4 B: control plasma + iodoacetic acid, same amount as in D
[5] = Table 5 B: control plasma + iodoacetic acid, same amount as in D

SMILES: O=C(O)CI [iodoacetic acid]
- Coagulation factor F II (F II; [1]): 99 % of control
- Coagulation factor F II (F II; [2]): 100 % of control
- Coagulation factor F II (F II; [3]): 100 % of control
- Coagulation factor F II (F II; [4]): 88 % of control
- Coagulation factor F II (F II; [5]): 88 % of control
- Coagulation factor F V (F V; [1]): 95 % of control
- Coagulation factor F V (F V; [2]): 105 % of control
- Coagulation factor F V (F V; [3]): 105 % of control
- Coagulation factor F V (F V; [4]): 67 % of control
- Coagulation factor F V (F V; [5]): 67 % of control
- Coagulation factor F X (F X; [1]): 96 % of control
- Coagulation factor F X (F X; [2]): 87 % of control
- Coagulation factor F X (F X; [3]): 87 % of control
- Coagulation factor F X (F X; [4]): 86 % of control
- Coagulation factor F X (F X; [5]): 86 % of control
